We go through six molecules from patent US5334715A, “1-piperazinyl-2-butenes and -2-butynes” (Hoechst-Roussel Pharmaceuticals Inc., priority 1993, dated 1994).

Each structure is given as a SMILES string. Where a name gives a salt, the structure may show the parent alone.

For one assay, the system named is apomorphine-induced climbing. The assay is described as follows: climbing mice assay: block of apomorphine-induced climbing (antipsychotic activity). It counts as in vivo, CK-1 male mice. The note with it: Mus musculus, ip, read-out: Antipsychotic Activity ED50. On the procedure: The subject CK-1 male mice (23-27 grams) are […] under standard laboratory conditions. The mice are individually placed in wire mesh stick cages (4"×4"10") and are allowed one hour for adaptation and exploration of the new environment.
For evaluation of climbing, 3 readings are taken at 10, 20, and 30 minutes after apomorphine administration according to the following scale:
2 paws on wall (rearing)
4 paws on the wall (full climbing)
Mice consistently climbing before the injections of apomorphine will be discarded.
With full-developed apomorphine climbing, the animals are hanging onto the cage walls, rather motionless, over long periods of time. By contrast, climbs due to mere motor stimulation usually only last a few seconds.
The climbing scores are individually totaled (maximal score: 6 per mouse over 3 readings) and the total score of the control group (vehicle intraperitoneally-apomorphine subcutaneously) is set 100%.
By ED50 is commonly meant the midpoint of the dose-response relation. As to `O=C(CCCN1CCC(O)(c2ccc(Cl)cc2)CC1)c1ccc(F)cc1` [Haloperidol, reference compound], the ED50 was 0.11 mg/kg.

The same assay, now with this note: Mus musculus, ip; mice; intraperitoneal 30 minutes prior to apomorphine 1.5 mg/kg s.c.; climbing readings at 10, 20, 30 minutes; linear regression; read-out: Antipsychotic Activity ED50.
`CCN1CCCC1CNC(=O)c1cc(S(N)(=O)=O)ccc1OC` (stereo not drawn) [Sulpiride, reference compound]: the ED50 stood at 4.5 mg/kg.
On the same count and under the same terms, to `COc1ccccc1N1CCN(C/C=C\CN2C(=O)c3ccccc3C2=O)CC1` [Z-1-(N-Phthalimido)-4-[4-(2-methoxyphenyl)-4-piperazinyl)]-2-butene dihydrochloride] belongs 10.3 mg/kg; to `COc1ccccc1N1CCN(C/C=C\CN2C(=O)CSC2=O)CC1` [Z-1-(3-Thiazolidine-2,4-dione)-4-[4-(2-methoxyphenyl)-1-piperazinyl]-2-butene dihydrochloride], 19.8 mg/kg.
Take `COc1ccccc1N1CCN(C/C=C/CN2C(=O)c3ccccc3C2=O)CC1` [E-1-(N-Phthalimido)-4-[4-(2-methoxyphenyl)-1-piperazinyl]-2-butene hydrochloride hemihydrate]: the ED50 came to 7.3 mg/kg.
In the case of `COc1ccccc1N1CCN(C/C=C\CN2C(=O)c3ccc(Cl)cc3C2=O)CC1` [Z-1-N-(4-Chlorophthalimido)-4-[4-(2-methoxyphenyl)-1-piperazinyl]-2-butene dihydrochloride hemihydrate], the 50% effective dose (ED50) came to 15.4 mg/kg.
